Assay results as given in patent publication US5206014A, “Synthetic nonapeptide for use as an adjuvant” (Sclavo, S.p.A., priority 1987, dated 1993).

Columns and labels:
Type in all cases: in vivo
[1] = tested on: primary response to polysaccharide of Streptococcus pneumoniae serotype 3 (SIII); assay: Primary antibody response to thymo-independent antigen SIII, PFC/spleen in immunized mice; conditions: 500 U/kg intraperitoneally
Experimental: (§1) More particularly, the immunostimulating activity of peptides 163-171 TFA and 163-171.HCl were assayed in the antibody response to sheep's red blood compuscles, thymo-dependent antigens and in response to the polysaccharide of Streptococcus pneumoniae serotype 3 (SIII), a thymo-independent antigen having low immunogenicity by using the method of haemolysis of plaques described by Cunningham A. J. and Szenberg (Immunology, 14, 599, 1968).
(§2) According to the invention, therefore, anti-body secreting cells of Classes IgM and IgG are determined by isolating lymphocytes from the spleen of mice immunized with SRBC and SIII antigens and treated by various methods and with various doses of peptide 163-171.TFA and peptide 163-171.HCl. To this end use has been made with identical results of inbred male C3H/HeNCr1BR mice and male and female C3H/HeJ mice weighing about 25 g. According to the invention, SRBC and SIII antigens previously dissolved in phosphate buffer (PBS) were inoculated in the mice, intravenously and intraperitoneally respectively, at a concentration of 1-2×10^8 SRBC/0.2 ml of PBS and 0.5 μg/0.5 ml of PBS. […]
The adjuvant activity of peptide 163-171.TFA and of human IL-1-β were then determined as in Example 1 by using 25 μl of a 10% suspension of SIII antigen conjugated with SRBC by chromium chloride in PBS (Baker P. J. et al. Appl. Microbiol. 17, 422 (1969)). […]

[2] = tested on: secondary antibody response to SRBC; assay: Secondary antibody response to SRBC, total PFC/spleen (IgM+IgG) in immunized mice; conditions: measured four days later, PBS control 29.992
Experimental: The number of IgG class antibody-secreting cells characteristic of the secondary response is determined, before the complement is added, by adding a direct rabbit antiserum against mouse immunoglobulins.
According to the invention, therefore, anti-body secreting cells of Classes IgM and IgG are determined by isolating lymphocytes from the spleen of mice immunized with SRBC and SIII antigens and treated by various methods and with various doses of peptide 163-171.TFA and peptide 163-171.HCl. To this end use has been made with identical results of inbred male C3H/HeNCr1BR mice and male and female C3H/HeJ mice weighing about 25 g. According to the invention, SRBC and SIII antigens previously dissolved in phosphate buffer (PBS) were inoculated in the mice, intravenously and intraperitoneally respectively, at a concentration of 1-2×10^8 SRBC/0.2 ml of PBS and 0.5 μg/0.5 ml of PBS.
Mice immunized with SRBC as in Example 1 hereinbefore were intraperitoneally re-inoculated four days after the first inoculation with a similar dose of SRBC antigens and simultaneously with 12, 36, 100 mg/kg peptide 163-171.TFA and 500 - 1000 - 2000 U/kg of human IL-1-β.
The immunostimulating activity of the peptide on the secondary response to SRBC was also determined by administering the same doses of peptide and human IL-1β but only with the first inoculation.
Four days after the second dose the mice were killed and the number of PFC/spleen was determined as in Example 1, after combining the complement with a rabbit serum against mouse immunoglobulin at a final dilution of 1:200.
^a The mice intravenously inoculated with 1-2 × 10^8 SRBC o
day -10 and were given a similar dose on day 0 and simultaneously treated
intraperitoneally with PBS (control) or with various doses of peptide
163-171.TFA or hu rIL1β. The total number of antiSRBC PFC was
measured four days after the second inoculation of antigen.
The procedure was the same as in Example 4, the antigen being intravenously inoculated together with preparations of peptide 163-171.TFA and 163-171.HCl (from 100 pg/kg to 100 μg/kg in PBS).

[3] = tested on: primary antibody response to sheep's red corpuscles (SRBC), thymo-dependent antigen; assay: Primary antibody response to SRBC, direct haemolysis plaque (PFC/spleen, IgM) in immunized mice
Experimental: as §1
The method consists in determining the number of cells which secrete antibodies specific to a given antigen. It consists in immunizing mice with the antigen to be assayed, placing lymphocytes obtained from the spleen of the immunized mice in contact with the same antigen, and finally in detecting the haemolysis plaques by adding complement.
Lysis zones (plaque-forming cells PFC) are observed at the place where the antigen-antibody reaction occurs, i.e. at each cell producing specific antibodies.
as §2
The slides, sealed at the edges with paraffin, were then incubated in a thermostat at 37° C. for one hour. At the end of this period, the plaques of direct haemolysis were counted using a light-contrast visor, indicating the number of lymphocytes secreting antibodies (PFC). The thus-detected antibodies were in Class IgM, specific to the primary antibody response. […]

## hu rIL-1β: human interleukin 1β (Genzyme Corporation Boston), comparator adjuvant
[1]
  Statistical significance versus control of PFC/spleen, primary response to SIII (FIG. 5): non-significant
[2]; 500 U/kg intraperitoneally with second SRBC inoculum (day 0)
  Average of total anti-SRBC PFC-spleen (95% confidence limits): 59.841 (45.604-78.343) PFC-spleen
[2]; 1000 U/kg intraperitoneally with second SRBC inoculum (day 0)
  Average of total anti-SRBC PFC-spleen (95% confidence limits): 77.624 (61.502-97.499) PFC-spleen
[2]; 2000 U/kg intraperitoneally with second SRBC inoculum (day 0)
  Average of total anti-SRBC PFC-spleen (95% confidence limits): 100.000 (84.139-118.850) PFC-spleen
[2]; 4000 U/kg intraperitoneally with second SRBC inoculum (day 0)
  Average of total anti-SRBC PFC-spleen (95% confidence limits): 42.364 (29.853-59.979) PFC-spleen
[3]; 4000 U/kg intraperitoneally
  Statistical significance versus control of PFC/spleen, primary response to SRBC (FIG. 1-B): non-significant
[3]; intraperitoneal, peptide 12-100 mg/kg, IL-1β 500-4000 U/kg, depending on the dose
  Effect on number of plaques/spleen, primary response to SRBC (FIGS. 1A, 1B): increase in the number of plaques/spleen
[3]; intravenous, response not specified
  Optimum intravenous dose: 100 pg/kg
